Experimental findings from ChEMBL document CHEMBL3272189, “Orally active esters of cephalosporin antibiotics. Synthesis and biological properties of acyloxymethyl esters of 7-(D-2-amino-2-phenylacetamido)-3-[5-methyl-(1,3,4-thiadiazol-2-yl)thiomethyl]-3-cephem-4-carboxylic acid” (J Med Chem, 1977) are described below.

Each structure is given as a SMILES string. In brackets after ≈: the same amount, converted by molar mass.

The nature of data set [1]: Half life in 0.1 M sodium phosphate buffer at 50 ug/ml at pH 4.5. The data set is classed as physicochemical.
A short description of data set [2]: Half life in 0.1 M sodium phosphate buffer at 50 ug/ml at pH 6.5. Type of data set: physicochemical.
The nature of data set [3]: Half life in 0.1 M sodium phosphate buffer at 50 ug/ml at pH 7.5. Type of data set: physicochemical.
A short description of data set [4]: Drug absorption in Lai:COX (Standard)BR mouse assessed as compound remaining in gastrointestinal tract at 17 mg/kg, po after 20 mins. Set-up: dose 17 mg/kg, route oral. Conditions: read-out: Stability; call rule not given here. Type of data set: ADME, organism-based.
Data set [5] can be described thus: Drug absorption in Lai:COX (Standard)BR mouse assessed as compound remaining in gastrointestinal tract at 17 mg/kg, po after 40 mins. The data set is classed as ADME, organism-based. Set-up: dose 17 mg/kg, route oral. Particulars: read-out: Stability.
Data set [6] is described as follows: Drug excretion in Lai:COX (Standard)BR mouse urine at 17 mg/kg, po after 5 mins. Type of data set: ADME, organism-based. Set-up: dose 17 mg/kg, route oral. Particulars: read-out: Drug excretion.
Data set [7] is described as follows: Drug excretion in Lai:COX (Standard)BR mouse urine at 17 mg/kg, po after 20 mins. Conditions: read-out: Drug excretion. The data set is classed as ADME, organism-based. The arrangement: dose 17 mg/kg, route oral.
Data set [8] in a line: Drug excretion in Lai:COX (Standard)BR mouse urine at 17 mg/kg, po after 40 mins. Type of data set: ADME, organism-based. The arrangement: dose 17 mg/kg, route oral. Particulars: read-out: Drug excretion.
Data set [9] can be described thus: Drug excretion in Lai:COX (Standard)BR mouse urine at 17 mg/kg, po after 60 mins. Particulars: read-out: Drug excretion. Type of data set: ADME, organism-based. The arrangement: dose 17 mg/kg, route oral.
Data set [10] in a line: Drug excretion in Lai:COX (Standard)BR mouse urine at 17 mg/kg, po after 80 mins. Type of data set: ADME, organism-based. The arrangement: dose 17 mg/kg, route oral. Particulars: read-out: Drug excretion.
The nature of data set [11]: Drug excretion in Lai:COX (Standard)BR mouse urine at 17 mg/kg, po after 100 mins. Type of data set: ADME, organism-based. The arrangement: dose 17 mg/kg, route oral. Particulars: read-out: Drug excretion.
Data set [12] can be described thus: Drug excretion in Lai:COX (Standard)BR mouse urine at 17 mg/kg, po after 120 mins. Type of data set: ADME, organism-based. The arrangement: dose 17 mg/kg, route oral. Particulars: read-out: Drug excretion.
Another data set has as its system Staphylococcus aureus. As to the kind of experiment: Antibacterial activity against penicillin-resistant, coagulase-positive Staphylococcus aureus assessed as growth inhibition by gradient-plate assay. Type of data set: functional.
A further data set has as its system Shigella sp. Description: Antibacterial activity against Shigella sp. assessed as growth inhibition by gradient-plate assay. The data set is classed as functional.
The next data set has as its system Escherichia coli. Description: Antibacterial activity against Escherichia coli assessed as growth inhibition by gradient-plate assay. The data set is classed as functional.
The test system of a further data set is Klebsiella pneumoniae. Description: Antibacterial activity against Klebsiella pneumoniae assessed as growth inhibition by gradient-plate assay. The data set is classed as functional.
A further data set relates to Klebsiella aerogenes. As to the kind of experiment: Antibacterial activity against Enterobacter aerogenes assessed as growth inhibition by gradient-plate assay. The data set is classed as functional.
Data set [13] in a line: Antibacterial activity against Salmonella heidelberg assessed as growth inhibition by gradient-plate assay. Type of data set: functional, Salmonella enterica subsp. enterica serovar Heidelberg. Conditions: Salmonella enterica.
Another data set deals with Serratia marcescens. Description: Antibacterial activity against Serratia marcescens assessed as growth inhibition by gradient-plate assay. The data set is classed as functional.
Data set [14] in a line: Drug excretion in Lai:COX (Standard)BR mouse urine at 17 mg/kg, sc after 5 mins. The data set is classed as ADME, organism-based. The arrangement: dose 17 mg/kg, route subcutaneous. Particulars: read-out: Drug excretion.
Data set [15] is described as follows: Drug excretion in Lai:COX (Standard)BR mouse urine at 17 mg/kg, sc after 20 mins. The data set is classed as ADME, organism-based. Set-up: dose 17 mg/kg, route subcutaneous. Particulars: read-out: Drug excretion.
Data set [16] is described as follows: Drug excretion in Lai:COX (Standard)BR mouse urine at 17 mg/kg, sc after 40 mins. The data set is classed as ADME, organism-based. Conditions: read-out: Drug excretion. Set-up: dose 17 mg/kg, route subcutaneous.
Data set [17] is described as follows: Drug excretion in Lai:COX (Standard)BR mouse urine at 17 mg/kg, sc after 60 mins. Conditions: read-out: Drug excretion. The data set is classed as ADME, organism-based. Set-up: dose 17 mg/kg, route subcutaneous.
Data set [18] in a line: Drug excretion in Lai:COX (Standard)BR mouse urine at 17 mg/kg, sc after 80 mins. Type of data set: ADME, organism-based. Particulars: read-out: Drug excretion. Set-up: dose 17 mg/kg, route subcutaneous.
Data set [19] is described as follows: Drug excretion in Lai:COX (Standard)BR mouse urine at 17 mg/kg, sc after 100 mins. The data set is classed as ADME, organism-based. Set-up: dose 17 mg/kg, route subcutaneous. Particulars: read-out: Drug excretion.
Data set [20] in a line: Drug excretion in Lai:COX (Standard)BR mouse urine at 17 mg/kg, sc after 120 mins. Type of data set: ADME, organism-based. Set-up: dose 17 mg/kg, route subcutaneous. Conditions: read-out: Drug excretion.
In another data set the test system is Blood. As to the kind of experiment: Drug uptake in Lai:COX (Standard)BR mouse blood at 17 mg/kg, po. Type of data set: ADME, organism-based. Set-up: dose 17 mg/kg, route oral. Conditions: in vivo.

The half-life is the time in which the quantity being followed falls by half. Regarding `Cc1nnc(SCC2=C(C(=O)OCOC(=O)C(C)(C)C)N3C(=O)[C@@H](NC(=O)[C@H](N)c4ccccc4)[C@H]3SC2)s1.Cl`, the half-life at 50 ug/ml in data set [1] was 1920 min; in data set [2], 45 min; in data set [3] it was 25 min. Further, the remaining at 20 min in [4] was 40.5%. Besides, the remaining at 40 min in [5] was determined as 25%. Further, the dose excreted at 5 min in data set [6] is 3.6%. Besides, in data set [7], the dose excreted at 20 min was 20.8%. The dose excreted at 40 min in [8] stood at 38.9%. The dose excreted at 1 h in [9] came to 43.2%. In data set [10], the dose excreted at 80 min is 48.2%. Moreover, in [11], the dose excreted at 100 min was 41.8%. Moreover, in data set [12], the dose excreted at 2 h is 41.5%.

In general, MIC refers to the lowest concentration found to suppress growth. For the compound `Cc1nnc(SCC2=C(C(=O)O)N3C(=O)[C@@H](NC(=O)[C@H](N)c4ccccc4)[C@H]3SC2)s1`, the MIC in the data set on Staphylococcus aureus amounted to 0.7 µg/mL (≈ 1.47 µM); with Shigella sp. it was 1 µg/mL (≈ 2.09 µM); in the data set on Escherichia coli, 1 µg/mL (≈ 2.09 µM); in the data set on Klebsiella pneumoniae it was 0.6 µg/mL (≈ 1.26 µM); with Klebsiella aerogenes it was 0.8 µg/mL (≈ 1.68 µM); in data set [13], 1 µg/mL (≈ 2.09 µM). In addition, the MIC with Serratia marcescens amounted to 26.5 µg/mL (≈ 55.5 µM). Besides, the half-life at 50 ug/ml in [1] is 2820 min; in data set [2], 76 min; in data set [3], 54 min. For the same compound, the remaining at 20 min in data set [4] amounted to 81.2%. Also, the remaining at 40 min in data set [5] was 67.5%. The dose excreted at 5 min in [14] worked out at 2.8%. For the same compound, the values for the dose excreted at 20 min in [15] and in data set [7] were 25% and 2.8%, respectively. The dose excreted at 40 min in [16] stood at 46.5%; in [8] it was 8.4%. The dose excreted at 1 h stood at 50.7% in data set [17] and 13.2% in data set [9]. In addition, the dose excreted at 80 min was determined as 56.7% in data set [18] and 17.5% in data set [10]. For the same compound, the dose excreted at 100 min in data set [19] is 54.1%; in data set [11], 22.4%. Besides, the results for the dose excreted at 2 h in [20] and in data set [12] were 54.1% and 14.1%, respectively. Besides, the Drug uptake result with Blood is given as “Active”.

For `CC(=O)OCOC(=O)C1=C(CSc2nnc(C)s2)CS[C@@H]2[C@H](NC(=O)[C@H](N)c3ccccc3)C(=O)N12.Cl`, the half-life at 50 ug/ml in data set [1] was 1620 min; in data set [2], 60 min; in data set [3], 25 min. In addition, in data set [4], the remaining at 20 min was 39.1%. In addition, the remaining at 40 min in data set [5] is 31.5%. For the same compound, in data set [7], the dose excreted at 20 min stood at 20.4%. In data set [8], the dose excreted at 40 min was determined as 32.5%. Moreover, the dose excreted at 1 h in [9] came to 33.1%. The dose excreted at 80 min in data set [10] turned out to be 36.1%. Moreover, the dose excreted at 100 min in [11] was found to be 38.3%. For the same compound, the dose excreted at 2 h in [12] stood at 36.8%.

In the case of `Cc1nnc(SCC2=C(C(=O)OC3OC(=O)c4ccccc43)N3C(=O)[C@@H](NC(=O)[C@H](N)c4ccccc4)[C@H]3SC2)s1.Cl` (stereo not given in full), the figures for the half-life at 50 ug/ml in data set [2] and in data set [3] were 25 min and 15 min, respectively. Besides, in data set [4], the remaining at 20 min came out at 59%. In addition, the remaining at 40 min in data set [5] worked out at 35%. Further, in data set [7], the dose excreted at 20 min turned out to be 8.3%. Also, in [8], the dose excreted at 40 min was 22.1%. Also, the dose excreted at 1 h in data set [9] was determined as 35%. For the same compound, the dose excreted at 80 min in [10] worked out at 30.5%. Moreover, the dose excreted at 100 min in [11] was 34%.

Regarding `CC1=C(C(=O)O)N2C(=O)[C@@H](NC(=O)[C@H](N)c3ccccc3)[C@H]2SC1` [CEPHALEXIN ANHYDROUS], the MIC came to 4.5 µg/mL (≈ 13 µM) with Staphylococcus aureus; 9 µg/mL (≈ 25.9 µM) in the data set with Shigella sp.; 8.5 µg/mL (≈ 24.5 µM) with Escherichia coli; 7 µg/mL (≈ 20.1 µM) with Klebsiella pneumoniae; 6.8 µg/mL (≈ 19.6 µM) in the data set on Klebsiella aerogenes; 5.5 µg/mL (≈ 15.8 µM) in [13]. Further, the MIC with Serratia marcescens worked out at 140 µg/mL (≈ 403 µM).
